For the series, the system named is Tetranychus cinnabarinus Boi, adult mite. The series is described as follows: whole plant or invertebrate. The series is classed as in vivo. The procedure:
Test subject: Tetranychus cinnabarinus Boi, adult mite, indoor rearing sensitive strain.
Test condition: 25° C. constant temperature incubator, 60% relative humidity, light L:D=14:10
Test solution formulation: according to the test needs, accurately weigh the test sample more than 50 mg by using an electronic analytical balance, mixed with acetone to the required concentration, according to calculation, the sample of acetone solution added to a volumetric flask, diluted by aqueous solution with 0.1 wt % Tween 80 to obtain the required concentration of the solution.
Test method: One true leaf was removed after cutting the seedlings of beans, and one true leaf was added to the hydroponic glass jar after leaving the leaf to access about 50-150 adult Tetranychus cinnabarinus Boi of the same size, and the mite base was counted the next day. The Airbrush method was used to treat the test material with medicinal spray, 1.5 mL of medicinal spray was sprayed for each treatment, and a blank control was set for three treatments.
After spraying and drying naturally, the treated test material was placed in a constant temperature observation room. 72 hours later, the number of live mites was investigated and the mortality rate was calculated. The Bliss method was used for evaluation, and the theoretical mortality rate could be calculated by the following formula: P=Pm+Pn(1−Pm)
Pm is the mortality rate (%) of the target at a concentration of m for the first active component (active component a); Pn is the mortality rate (%) of the target at a concentration of n for the second active component (active component b).

The mark [1] stands for this setting: Tetranychus cinnabarinus, 72 h, read-out: 72 h mortality rate.
The mark [2] stands for this setting: Tetranychus cinnabarinus, 72 h, single agent 0.01 mg/L, adult mites, 72 h after spraying, read-out: 72 h mortality rate.
Setting [3] is: Tetranychus cinnabarinus, 72 h, single agent 0.04 mg/L, adult mites, 72 h after spraying, read-out: 72 h mortality rate.
Setting [4] is: Tetranychus cinnabarinus, 72 h, single agent 0.2 mg/L, adult mites, 72 h after spraying, read-out: 72 h mortality rate.
Where [5] appears, read: Tetranychus cinnabarinus, 72 h, single agent 0.4 mg/L, adult mites, 72 h after spraying, read-out: 72 h mortality rate.
Setting [6] is: Tetranychus cinnabarinus, 72 h, single agent 0.8 mg/L, adult mites, 72 h after spraying, read-out: 72 h mortality rate.
Setting [7] is: single agent 0.2 mg/L, adult mites, 72 h after spraying.
Where [8] appears, read: single agent 0.4 mg/L, adult mites, 72 h after spraying.
Where [9] appears, read: single agent 0.8 mg/L, adult mites, 72 h after spraying.
[10] abbreviates: single agent 0.01 mg/L, adult mites, 72 h after spraying.
The mark [11] stands for this setting: single agent 0.04 mg/L, adult mites, 72 h after spraying.
Where [12] appears, read: single agent 1 mg/L, adult mites, 72 h after spraying.
Where [13] appears, read: single agent 5 mg/L, adult mites, 72 h after spraying.

Several values for one entry are separate records, joined by “and”; a condition that tells them apart may be missing. Equal values may be shown once. Read-outs that look alike come from different tables or passages of the source.

Broadly, the mortality is the percentage killed. On to `Clc1ccccc1-c1nnc(-c2ccccc2Cl)nn1` [clofentezine], for which, under setting [1], the mortality at 0.04 µg/mL was determined as 0%, the mortality at 0.2 µg/mL was 0%, the mortality at 1 µg/mL worked out at 9.1% and the mortality at 8 µg/mL is 18.2%. In addition, under setting [1], the mortality at 40 µg/mL came out at 41.3%.
Take `CCOc1cc(C(C)(C)C)ccc1C1COC(c2c(F)cccc2F)=N1` (stereo not drawn) [etoxazole]: under setting [1], the mortality at 0.01 µg/mL was determined as 0%, the mortality at 0.04 µg/mL was 0%, the mortality at 0.2 µg/mL stood at 9.3% and the mortality at 0.4 µg/mL worked out at 21.4%. For the same molecule, under setting [1], the mortality at 1 µg/mL was 26.6% and the mortality at 5 µg/mL amounted to 43.6%.
Take `C#CCOS(=O)OC1CCCCC1Oc1ccc(C(C)(C)C)cc1` (stereo not drawn) [propargite]: under setting [1], the mortality at 0.1 µg/mL amounted to 0%, the mortality at 0.4 µg/mL was determined as 0%, the mortality at 4 µg/mL was 3.9% and the mortality at 25 µg/mL came to 34.1%.
Take `COC(=O)c1ccccc1CNc1cc(SCC(F)(F)F)c(Cl)cc1F` [Compound A9]: the mortality at 0.01 µg/mL under setting [2] worked out at 0%. Moreover, the mortality at 0.04 µg/mL under setting [3] is 0%. For the same molecule, under setting [4], the mortality at 0.2 µg/mL amounted to 19.8%. The mortality at 0.4 µg/mL under setting [5] was determined as 42.2%. Further, the mortality at 0.8 µg/mL under setting [6] was determined as 62.3%. The “72 h mortality rate” value was 18.5% and 27.5% and 22.1% and 22.4% under setting [7]; 41.9% and 36.0% and 40.8% and 34.5% under setting [8]; 64.1% and 67.1% and 64.6% and 65.8% under setting [9].
Consider `CC[C@H](C)[C@H]1O[C@]2(C=C[C@@H]1C)C[C@@H]1C[C@@H](C/C=C(\C)[C@@H](O[C@H]3C[C@H](OC)[C@@H](O[C@H]4C[C@H](OC)[C@@H](O)[C@H](C)O4)[C@H](C)O3)[C@@H](C)/C=C/C=C3\CO[C@@H]4[C@H](O)C(C)=C[C@@H](C(=O)O1)[C@]34O)O2` [avermectin], for which, under setting [1], the mortality at 0.0005 µg/mL worked out at 0%, the mortality at 0.0025 µg/mL came out at 14.8%, the mortality at 0.01 µg/mL came to 37.3% and the mortality at 0.02 µg/mL was 70%.
For `COC(=O)c1ccccc1CNc1cc(SCC(F)(F)F)c(C)cc1F` [Compound A1], the mortality at 0.01 µg/mL under setting [2] was determined as 0%. Besides, the mortality at 0.04 µg/mL under setting [3] stood at 0%. The mortality at 0.2 µg/mL under setting [4] is 27.9%. Further, the mortality at 0.4 µg/mL under setting [5] was 40.1%. Under setting [6], the mortality at 0.8 µg/mL was found to be 74.6%. In addition, the “72 h mortality rate” value under setting [7] was 22.2% and 28.1% and 26.8% and 19.8%; the “72 h mortality rate” value under setting [8] is 40.4% and 43.3% and 41.7% and 42.3%; the “72 h mortality rate” value under setting [9] was 74.3% and 72.6% and 72.7% and 74.1%.
On to `CCn1nc(C)cc1/C(OC(=O)C(C)(C)C)=C(/C#N)c1ccc(C(C)(C)C)cc1` [cyetpyrafen], for which the “72 h mortality rate” value worked out at 0% under setting [10]; 2.8% (single agent 0.05 mg/L, adult mites, 72 h after spraying); 17.0% (single agent 0.1 mg/L, adult mites, 72 h after spraying); 37.9% under setting [7]; 75.5% (single agent 0.5 mg/L, adult mites, 72 h after spraying).
With `C[C@@H]1[C@@H](c2ccc(Cl)cc2)SC(=O)N1C(=O)NC1CCCCC1` [hexythiazox], under setting [1], the mortality at 0.04 µg/mL stood at 0%, the mortality at 0.2 µg/mL came out at 12.8%, the mortality at 1 µg/mL was 21.3% and the mortality at 8 µg/mL was 36.3%. The mortality at 40 µg/mL under setting [1] was found to be 69.5%.
As for `CCC(C)(C)C(=O)OC1=C(c2ccc(Cl)cc2Cl)C(=O)OC12CCCCC2` [spirodiclofen], the “72 h mortality rate” value runs as follows: under setting [10], 0%; under setting [11], 0%; under setting [7], 0%; under setting [8], 9.4%; under setting [12], 24.2%; under setting [13], 56.9%.
In the case of `Cc1cc(C)c(C2=C(OC(=O)CC(C)(C)C)C3(CCCC3)OC2=O)c(C)c1` [spiromesifen], the “72 h mortality rate” value under setting [10] is reported as 0%; the “72 h mortality rate” value under setting [11] is 0%; the “72 h mortality rate” value under setting [7] amounted to 0%; the “72 h mortality rate” value under setting [8] stood at 14.1%; the “72 h mortality rate” value under setting [12] was determined as 30.4%; the “72 h mortality rate” value under setting [13] turned out to be 64.9%.

These data come from patent US12667100B2, “Composition comprising benzylamine acaricide and use thereof” (SHANDONG KANGQIAO BIO-TECHNOLOGY CO., LTD, priority 2021, dated 2026).
